Consider 20 molecules from patent US8273740B2, “2-sulfanyl-benzoimidazol-1-yi-acetic acid derivatives as CRTH2 antagonists” (Actelion Pharmaceuticals, Ltd., priority 2004, dated 2012).

Structures are written as SMILES.

The first test deals with T1, hCRTH2 receptor (Homo sapiens, UniProt Q9Y5Y4).
T1 construct: expressed in transfected cells; host or cells: clonal HEK 293 cell line (membranes)
T1 sequence (Q9Y5Y4 1-395): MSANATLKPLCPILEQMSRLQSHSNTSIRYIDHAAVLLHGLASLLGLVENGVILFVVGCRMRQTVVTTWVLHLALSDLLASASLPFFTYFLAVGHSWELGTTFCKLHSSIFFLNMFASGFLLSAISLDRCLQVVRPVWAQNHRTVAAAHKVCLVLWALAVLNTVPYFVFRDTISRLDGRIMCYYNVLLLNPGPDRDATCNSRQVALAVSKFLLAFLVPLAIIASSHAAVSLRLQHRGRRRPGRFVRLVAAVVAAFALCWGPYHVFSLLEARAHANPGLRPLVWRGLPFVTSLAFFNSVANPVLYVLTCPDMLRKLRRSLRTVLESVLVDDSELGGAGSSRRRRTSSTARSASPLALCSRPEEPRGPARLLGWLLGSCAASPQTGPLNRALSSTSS
Description: Intracellular calcium mobilization assay (FLIPR), antagonism of prostaglandin D2. In kind it is cell-based.
Conditions: not given
From the text: A functional assay with cells expressing the human CRTH2 receptor may be used to detect changes in the levels of intracellular calcium concentration following compound treatment. After addition of the compound the cells are challenged with PGD2. […] The relative values of the remaining activity were used to determine IC50 values by curve fitting the data to a single site to a four-parameter logistic sigmoid dose response curve of the equation (A+((B−A)/(1+((C/x)^D)))).
The ability of the compounds to inhibit PGD2 induced change of intracellular calcium levels via CRTH2 activation may be measured by methods known of one skilled in the art or by the method described below in the experimental part.
Intracellular Calcium Mobilization Assay (FLIPR):
Cells are detached from culture dishes using a dissociation buffer (0.02% EDTA in PBS, Gibco) for 1 min, and collected by centrifugation at 200 g at rt for 5 min in assay buffer [equal parts of Hank's BSS (HBSS, Bioconcept) and DMEM (low glucose, without phenol red, Gibco)].
Stock solutions of test compounds are made up at a concentration of 10 mM in DMSO, and serially diluted in assay buffer to concentrations required for inhibition dose response curves. Prostaglandin D2 (Biomol, Plymouth Meeting, Pa.) is used as an agonist.
A FLIPR384 instrument (Molecular Devices) is operated according to the manufacturer's standard instructions, adding 4 μl of test compound dissolved at 10 mM in DMSO and diluted prior to the experiment in assay buffer to obtain the desired final concentration. An assay buffer containing 10 μl of 80 nM prostaglandin D2 (Biomol, Plymouth Meeting, Pa.), supplemented with 0.8% bovine serum albumin (fatty acid content <0.02%, Sigma), is then added to obtain a final concentration of 10 nM and 0.1%, respectively. […] Emission peak values above base level after prostaglandin D2 addition are exported after base line subtraction. Values are normalized to high-level control (no test compound added) after subtraction of base line value (no prostaglandin D2 added). The program XL1fit 3.0 (IDBS) is used to fit the data to a single site dose response curve of the equation (A+((B−A)/(1+((C/x)^D)))) and to calculate the IC50 values.
In general terms: Calcium assays in cells follow changes in intracellular calcium, usually with a dye or a luminescent sensor.
What is called IC50 is the concentration that gives 50% inhibition. In the case of `CCCCNC(=O)c1ccc(OC)c(CSc2nc3cc(F)ccc3n2CC(=O)O)c1` [[2-(5-Butylcarbamoyl-2-methoxy-benzylsulfanyl)-5-fluoro-benzoimidazol-1-yl]-acetic acid], the IC50 was 21 nM.

The test is the same for the next values; noted with them: HEK-293 cells expressing hCRTH2, agonist prostaglandin D2 10 nM; read-out: hCRTH2 FLIPR IC50.
For the molecule `O=C(O)Cn1c(SCC2CCN(C(=O)c3ccc(Br)cc3)C2)nc2cc(F)ccc21` (racemic), the IC50 turned out to be 88 nM.

In the case of `COC(=O)c1ccc(OC)c(CSc2nc3ccccc3n2CC(=O)O)c1`, the IC50 is 201 nM.

Consider `O=C(O)Cn1c(SCCC(c2ccccc2)c2ccccc2)nc2ccc([N+](=O)[O-])cc21` [[2-(3,3-Diphenyl-propylsulfanyl)-6-nitro-benzoimidazol-1-yl]-acetic acid], for which the IC50 is 212 nM.

As to `COc1ccc(C(=O)N2CCc3ccccc32)cc1CSc1nc2cc(F)ccc2n1CC(=O)O` [{2-[5-(2,3-Dihydro-indole-1-carbonyl)-2-methoxy-benzylsulfanyl]-5-fluoro-benzoimidazol-1-yl}-acetic acid], the 50% inhibitory concentration (IC50) came out at 4 nM.

Take `CCOC(=O)c1ccc(N(CCCSc2nc3ccccc3n2CC(=O)O)C(=O)CC(c2ccccc2)c2ccccc2)cc1`: the IC50 is 128 nM.

`O=C(O)Cn1c(SCC2CCCN(C(=O)c3cccc(Cl)c3)C2)nc2ccccc21` (racemic): the IC50 is 156 nM.

As for `CCCC(=O)N1CCCC(CSc2nc3cc(Cl)c(Cl)cc3n2CC(=O)O)C1` (centres unmarked) [[2-(1-Butyryl-piperidin-3-ylmethylsulfanyl)-5,6-dichloro-benzoimidazol-1-yl]-acetic acid], the half-inhibitory concentration (IC50) stood at 148 nM.

As for `COC(=O)c1cccc(CSc2nc3cc([N+](=O)[O-])ccc3n2CC(=O)O)c1` [[2-(3-Methoxycarbonyl-benzylsulfanyl)-5-nitro-benzoimidazol-1-yl]-acetic acid], the half-maximal inhibitory concentration (IC50) was found to be 15 nM.

A further test deals with T1, hCRTH2 receptor. Description: CRTH2 membranes radioligand binding assay ({3H}-PGD2); antagonist binding to the CRTH2 receptor. Particulars: {3H}-PGD2 radioligand binding, membranes of HEK 293 cells expressing recombinant hCRTH2; read-out: hCRTH2 BDG IC50. The method, then:
Preparation of CRTH2 Membranes and Radioligand Binding Assay:
Cells are detached from culture plates in 5 ml buffer A per plate (5 mM Tris, 1 mM MgCl2x6H2O, 0.1 mM PMSF, 0.1 mM phenanthroline) using a police rubber and transferred into centrifugation tubes and frozen at −80° C. After thawing, the cells are centrifuged at 500 g for 5 min and then resuspended in buffer A. Cells are then fragmented by homogenization with a Polytron homogenizer for 30 s. The membrane fragments are centrifuged at 3000 g for 40 min and resuspended in membranes in buffer B (50 mM Tris, 25 mM MgCl2, 250 mM saccharose, pH 7.4) and aliquots are stored frozen.
Binding assay is performed in a total volume of 250 μl. […] For unspecific binding, PGD2 is added to the reaction mixture at 1 μM final concentration. This binding assay mix is incubated at rt for 90 min and then filtered through a GF/C filter plate. The filter is washed three times with ice cold binding buffer. Then, 40 μl per well Microscint-40 (Packard) are added and the bound radioactivity is quantified by means of Topcount (Packard).
Turning to `CC(=O)c1ccc(OCCCO)c(CSc2nc3cc(F)ccc3n2CC(=O)O)c1` [{2-[5-Acetyl-2-(3-hydroxy-propoxy)-benzylsulfanyl]-5-fluoro-benzoimidazol-1-yl}-acetic acid], the half-maximal inhibitory concentration (IC50) was determined as 2 nM.

In the case of `O=C(O)Cn1c(SCC2CCN(C(=O)c3ccc(Br)cc3)C2)nc2cc(F)ccc21` (racemic), the 50% inhibitory concentration (IC50) turned out to be 23 nM.

In the case of `CCCCOC(=O)N(CCCSc1nc2ccccc2n1CC(=O)O)CCc1ccccc1`, the half-maximal inhibitory concentration (IC50) came out at 10 nM.

For the molecule `CCCCC(=O)N(CCCSc1nc2ccccc2n1CC(=O)O)CCc1ccccc1` [{2-[3-(Pentanoyl-phenethyl-amino)-propylsulfanyl]-benzoimidazol-1-yl}-acetic acid], the IC50 was determined as 12 nM.

As for `COc1ccc(C(C)=O)cc1CSc1nc2cc(C=O)ccc2n1CC(=O)O` [[2-(5-Acetyl-2-methoxy-benzylsulfanyl)-5-formyl-benzoimidazol-1-yl]-acetic acid], the IC50 was 6 nM.

As to `COc1ccc(C(C)=O)cc1CSc1nc2cc(F)ccc2n1C(C)C(=O)O` (racemic), the IC50 amounted to 13 nM.

For `CCCCOC(=O)N(CCCSc1nc2cc([N+](=O)[O-])ccc2n1CC(=O)O)CCc1ccccc1` [{2-[3-(Butoxycarbonyl-phenethyl-amino)-propylsulfanyl]-5-nitro-benzoimidazol-1-yl}-acetic acid], the IC50 came to 1 nM.

As to `O=C(O)Cn1c(SCC2CCCN(C(=O)c3ccc(Br)cc3)C2)nc2ccccc21` (racemic), the half-maximal inhibitory concentration (IC50) turned out to be 18 nM.

`CCCCC(=O)N(CCCSc1nc2ccccc2n1CC(=O)O)CC(c1ccccc1)c1ccccc1` [(2-{3-[(2,2-Diphenyl-ethyl)-pentanoyl-amino]-propylsulfanyl}-benzoimidazol-1-yl)-acetic acid]: the IC50 amounted to 15 nM.

For the molecule `CCOC(=O)c1ccc(N(CCCSc2nc3ccccc3n2CC(=O)O)C(=O)C(c2ccccc2)C2CCCCC2)cc1` (racemic), the half-inhibitory concentration (IC50) is 7 nM.

With `CCCC(=O)N1CCCC(CSc2nc3cc(Cl)c(Cl)cc3n2CC(=O)O)C1` (centres unmarked) [[2-(1-Butyryl-piperidin-3-ylmethylsulfanyl)-5,6-dichloro-benzoimidazol-1-yl]-acetic acid], the IC50 was found to be 4 nM.

Consider `COC(=O)c1cccc(CSc2nc3cc([N+](=O)[O-])ccc3n2CC(=O)O)c1` [[2-(3-Methoxycarbonyl-benzylsulfanyl)-5-nitro-benzoimidazol-1-yl]-acetic acid], for which the IC50 amounted to 15 nM.

For the molecule `CCCC(=O)N1CCCC(CSc2nc3ccccc3n2CC(=O)O)C1` (racemic), the half-inhibitory concentration (IC50) was 22 nM.

For `COc1ccc(C(C)=O)cc1CSc1nc2ccccc2n1CC(=O)O` [[2-(5-Acetyl-2-methoxy-benzylsulfanyl)-benzoimidazol-1-yl]-acetic acid], the half-maximal inhibitory concentration (IC50) was 9 nM.
